# From PubChem BioAssay AID330 (DTP/NCI, 2004)
# Values joined by “and” are separate entries in the source; they are usually repeats but may differ in a detail not shown here. Identical values can stand only once. Inconclusive results and toxic doses are left out.
# Test system: P388 leukemia ip, CD2F1 mice, survival T/C
# Test: NCI In Vivo Anticancer Drug Screen. Data for tumor model P388 Leukemia (intraperitoneal) in CD2F1 (CDF1) mice
# Conditions: endpoint: median survival time, higher = longer survival
# Procedure, shortened: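 Mice carrying the transplanted tumor received test compound or vehicle. Survival was recorded in each group, and the value is the treated-group measurement divided by that of the vehicle-treated control group.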
# [1] = dose: 50.0 mg/kg/injection, schedule: Q01DX005 (ip), vehicle: Klucel (hydroxypropylcellulose) (HPC)
# [2] = dose: 100.0 mg/kg/injection, schedule: Q01DX005 (ip), vehicle: Klucel (hydroxypropylcellulose) (HPC)
# [3] = dose: 200.0 mg/kg/injection, schedule: Q01DX005 (ip), vehicle: Klucel (hydroxypropylcellulose) (HPC)
# [4] = dose: 12.5 mg/kg/injection, schedule: Q01DX005 (ip), vehicle: saline with Tween-80
# [5] = dose: 25.0 mg/kg/injection, schedule: Q01DX005 (ip), vehicle: saline with Tween-80
# [6] = dose: 50.0 mg/kg/injection, schedule: Q01DX005 (ip), vehicle: saline with Tween-80
# [7] = dose: 50.0 mg/kg/injection, schedule: Q01DX009 (ip), vehicle: Klucel (hydroxypropylcellulose) (HPC)
# [8] = dose: 100.0 mg/kg/injection, schedule: Q01DX009 (ip), vehicle: Klucel (hydroxypropylcellulose) (HPC)
# [9] = dose: 50.0 mg/kg/injection, schedule: Q01DX009 (ip), vehicle: saline with Tween-80
# [10] = dose: 100.0 mg/kg/injection, schedule: Q01DX009 (ip), vehicle: saline with Tween-80
# [11] = dose: 200.0 mg/kg/injection, schedule: Q01DX009 (ip), vehicle: saline with Tween-80
# [12] = dose: 100.0 mg/kg/injection, schedule: Q01DX005 (ip), vehicle: saline with Tween-80
# [13] = dose: 200.0 mg/kg/injection, schedule: Q01DX005 (ip), vehicle: saline with Tween-80
smiles,measurement,setting,value
COc1cc2c(c(OC)c1OC)-c1cc3c(cc1C(OC1OC(COC(C)=O)C(OC(C)=O)C(OC(C)=O)C1OC(C)=O)C1COC(=O)C1C2)OCO3 (stereo not drawn),T/C,"dose: 18.75 mg/kg/injection, schedule: Q01DX005 (ip), vehicle: Klucel (hydroxypropylcellulose) (HPC)",93 % of control
same,T/C,"dose: 37.5 mg/kg/injection, schedule: Q01DX005 (ip), vehicle: Klucel (hydroxypropylcellulose) (HPC)",93 % of control
same,T/C,"dose: 75.0 mg/kg/injection, schedule: Q01DX005 (ip), vehicle: Klucel (hydroxypropylcellulose) (HPC)",93 % of control
same,T/C,"dose: 150.0 mg/kg/injection, schedule: Q01DX005 (ip), vehicle: Klucel (hydroxypropylcellulose) (HPC)",88 % of control
CC(=NCCN=C(C)c1cc(C)cc(Br)c1O)c1cc(C)cc(Br)c1O,T/C,[1],108 % of control
same,T/C,[2],101 % of control
same,T/C,[3],117 % of control
c1ccc2nc(N=Nc3cnc4ccccc4n3)cnc2c1,T/C,"dose: 12.5 mg/kg/injection, schedule: Q01DX001 (ip), vehicle: saline with Tween-80",100 % of control and 93 % of control and 94 % of control
same,T/C,[4],94 % of control
same,T/C,"dose: 25.0 mg/kg/injection, schedule: Q01DX001 (ip), vehicle: saline with Tween-80",99 % of control and 94 % of control
same,T/C,[5],94 % of control
same,T/C,"dose: 50.0 mg/kg/injection, schedule: Q01DX001 (ip), vehicle: saline with Tween-80",100 % of control and 86 % of control and 97 % of control
same,T/C,[6],97 % of control
COCC12CCC(OC)C34C5CC6(O)C(OC)CC(OC(C)=O)(C5C6OC(=O)c5ccccc5)C(C(OC)C13)C4N(C)C2 (stereo not drawn),T/C,"dose: 0.31 mg/kg/injection, schedule: Q01DX009 (ip), vehicle: saline",106 % of control
same,T/C,"dose: 0.62 mg/kg/injection, schedule: Q01DX009 (ip), vehicle: saline",101 % of control
same,T/C,"dose: 1.25 mg/kg/injection, schedule: Q01DX009 (ip), vehicle: saline",110 % of control
same,T/C,"dose: 2.5 mg/kg/injection, schedule: Q01DX009 (ip), vehicle: saline",102 % of control
same,T/C,"dose: 5.0 mg/kg/injection, schedule: Q01DX009 (ip), vehicle: saline",108 % of control
CC(=O)NCCSC(NC(=O)Cc1ccccc1)C(=O)O (stereo not drawn),T/C,[7],94 % of control
same,T/C,[8],97 % of control
same,T/C,"dose: 200.0 mg/kg/injection, schedule: Q01DX009 (ip), vehicle: Klucel (hydroxypropylcellulose) (HPC)",100 % of control
CC(C)=NOc1ccccc1[N+](=O)[O-],T/C,[9],111 % of control
same,T/C,[10],101 % of control
same,T/C,[11],93 % of control
O=C(OCCO)c1ccccc1O,T/C,"dose: 100.0 mg/kg/injection, schedule: Q04DX003 (ip), vehicle: saline with Tween-80",95 % of control
same,T/C,"dose: 200.0 mg/kg/injection, schedule: Q04DX003 (ip), vehicle: saline with Tween-80",104 % of control
same,T/C,"dose: 400.0 mg/kg/injection, schedule: Q04DX003 (ip), vehicle: saline with Tween-80",95 % of control
O=S(=O)(O)O.[NH-]C1CCCC1[NH-].[Pt+2] (stereo not drawn),T/C,"dose: 6.25 mg/kg/injection, schedule: Q04DX002 (ip), vehicle: saline",177 % of control and 195 % of control
same,T/C,"dose: 12.5 mg/kg/injection, schedule: Q04DX002 (ip), vehicle: saline",180 % of control and 202 % of control
same,T/C,"dose: 12.5 mg/kg/injection, schedule: Q04DX002 (ip), vehicle: suspension in saline",191 % of control
same,T/C,"dose: 25.0 mg/kg/injection, schedule: Q04DX002 (ip), vehicle: saline",198 % of control and 194 % of control
COc1ccc2cc3n(c(=O)c2c1O)CCc1cc2c(cc1-3)OCO2,T/C,"dose: 0.63 mg/kg/injection, schedule: Q01DX009 (ip), vehicle: distilled water + Tween-80",101 % of control
same,T/C,"dose: 1.25 mg/kg/injection, schedule: Q01DX009 (ip), vehicle: distilled water + Tween-80",101 % of control
same,T/C,"dose: 2.5 mg/kg/injection, schedule: Q01DX009 (ip), vehicle: distilled water + Tween-80",93 % of control
same,T/C,"dose: 5.0 mg/kg/injection, schedule: Q01DX009 (ip), vehicle: distilled water + Tween-80",108 % of control
same,T/C,"dose: 10.0 mg/kg/injection, schedule: Q01DX009 (ip), vehicle: distilled water + Tween-80",101 % of control
same,T/C,"dose: 20.0 mg/kg/injection, schedule: Q01DX009 (ip), vehicle: distilled water + Tween-80",92 % of control
N#CC1(c2ccccc2)C(c2ccccc2)=CC(=C2C(=O)NC(=O)N(c3ccccc3)C2=O)C=C1c1ccccc1 (stereo not drawn),T/C,[1],100 % of control
same,T/C,[2],104 % of control
same,T/C,[3],98 % of control
CCCC1c2c(ccc3c2OCO3)CC[N+]1(C)CCN(CC)CC (stereo not drawn),T/C,"dose: 6.25 mg/kg/injection, schedule: Q01DX005 (ip), vehicle: saline with Tween-80",109 % of control
same,T/C,[4],98 % of control
same,T/C,[5],100 % of control and 105 % of control
CC(C1SC(=S)NC1=O)C1SC(=S)NC1=O (stereo not drawn),T/C,[6],86 % of control
same,T/C,[12],87 % of control
same,T/C,[13],87 % of control
O=C(O)CCCCSCCCCCCSCCCCC(=O)O,T/C,[1],106 % of control
same,T/C,[2],105 % of control
same,T/C,[3],107 % of control
COC1/C=C/OC2(C)Oc3c(C)c(O)c4c(c3C2=O)C(N)=C(NC2CC2)C(=NC(=O)/C(C)=C\C=C\C(C)C(O)C(C)C(O)C(C)C(OC(C)=O)C1C)C4=O (stereo not drawn),T/C,"dose: 25.0 mg/kg/injection, schedule: Q01DX009 (ip), vehicle: Klucel (hydroxypropylcellulose) (HPC)",102 % of control
same,T/C,[7],103 % of control
same,T/C,[8],119 % of control
O=[N+]([O-])c1ccc(/C=N/Nc2nnc(-c3ccccc3)c(-c3ccccc3)n2)o1,T/C,[4],106 % of control
same,T/C,[5],103 % of control
same,T/C,[6],93 % of control and 96 % of control
same,T/C,[13],88 % of control
O=C1CS(=O)(=O)C(c2ccccc2F)N1N1C(=O)CS(=O)(=O)C1c1ccccc1F (stereo not drawn),T/C,"dose: 15.0 mg/kg/injection, schedule: Q01DX005 (ip), vehicle: saline with Tween-80",98 % of control and 87 % of control
same,T/C,"dose: 30.0 mg/kg/injection, schedule: Q01DX005 (ip), vehicle: saline with Tween-80",89 % of control
same,T/C,"dose: 60.0 mg/kg/injection, schedule: Q01DX005 (ip), vehicle: saline with Tween-80",87 % of control and 89 % of control
CC(C)NCC(O)COc1ccccc1C1CC1 (stereo not drawn),T/C,"dose: 50.0 mg/kg/injection, schedule: Q01DX009 (ip), vehicle: saline",106 % of control
same,T/C,"dose: 100.0 mg/kg/injection, schedule: Q01DX009 (ip), vehicle: saline",104 % of control
CC(=O)O[C@H]1C(=O)C=C[C@H](C)[C@@H]2CC[C@H](OC(C)(C)C)[C@@]12C,T/C,[6],102 % of control
same,T/C,[12],98 % of control
same,T/C,[13],108 % of control
COc1ccc([N+](=O)[O-])c(/C=C/C(=O)c2ccccn2)c1,T/C,"dose: 12.5 mg/kg/injection, schedule: Q01DX009 (ip), vehicle: distilled water + Tween-80",98 % of control
same,T/C,"dose: 25.0 mg/kg/injection, schedule: Q01DX009 (ip), vehicle: distilled water + Tween-80",100 % of control
same,T/C,"dose: 50.0 mg/kg/injection, schedule: Q01DX009 (ip), vehicle: distilled water + Tween-80",97 % of control
same,T/C,"dose: 100.0 mg/kg/injection, schedule: Q01DX009 (ip), vehicle: distilled water + Tween-80",98 % of control
same,T/C,"dose: 200.0 mg/kg/injection, schedule: Q01DX009 (ip), vehicle: distilled water + Tween-80",104 % of control
CC(=O)OCc1c([O-])on[n+]1-c1ccccc1,T/C,[1],100 % of control
same,T/C,[2],102 % of control
same,T/C,[3],102 % of control
O=C(NC1CCCCC1C1CCC(Cl)CC1)c1ccccc1 (stereo not drawn),T/C,[6],89 % of control
same,T/C,[12],87 % of control
same,T/C,[13],87 % of control
CC(CC(=O)c1ccccc1)=NCCCN=C(C)CC(=O)c1ccccc1,T/C,[9],112 % of control
same,T/C,[10],96 % of control
same,T/C,[11],96 % of control
CC(=O)ON(C(C)=O)C1CCCCC1,T/C,[9],100 % of control
same,T/C,[10],97 % of control
same,T/C,[11],98 % of control
CCCCCCCCCCCC(=O)/C=C/c1ccc(Cl)c(Cl)c1,T/C,[7],102 % of control
same,T/C,[8],90 % of control
